Measured values: the supplement of paper PMC11208160
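Also: IS621 bridge recombinase in Escherichia coli cells against a fixed T5 target plasmid.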

Experiment: recombinant UMI read abundance after kanamycin selection (control-corrected) (log10(CPM+1)); higher = more efficient recombination; extreme values may be limits of the assay; sequences stand for … in AGTGCAGAGAAAATCGGCCAGTTTTCTCTGCCTGCAGTCCGCATGCCGTGGGACCCCTTGGGTTCTAACCTGTTGCCTAGATTTATGCAGCGGACTGCCTTTCTCCCAAAGTGATAAACCGG…AGGTTGGTTTCACT; site = the 11-nt donor
Procedure, shortened: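 Two replicates each of selected and unselected plating were used in this pooled Escherichia coli screen of donor and donor-binding-loop pairs for the IS621 bridge recombinase. Selection was with IPTG (0.07 mM) and kanamycin. Counts of recombinant UMIs, amplified across the donor–target junction, were converted to CPM, averaged, scaled by control-derived factors and reported as log10(CPM+1).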
With “AGGAAGACATGGACCGGTTTTCCCGGTAATCCGTATTTGCA (site CGGAAGACTGG)” the “recombinant UMI read abundance (log10)” value was 0. In the case of “AGGAAGACATGGACCGGTTTTCCCGGTAATCCGTATTTGCA (site CGGAAGACTTG)”, the “recombinant UMI read abundance (log10)” value is reported as 0.801. In the case of “AGGAAGACATGGACCGGTTTTCCCGGTAATCCGTATTTGCA (site CGGAAGACTTT)”, the “recombinant UMI read abundance (log10)” value is reported as 0.95. With “AGGAAGACATGGACCGGTTTTCCCGGTAATCCGTATTTGCA (site CGGAAGCCTTG)” the “recombinant UMI read abundance (log10)” value was 0. For “AGGAAGACATGGACCGGTTTTCCCGGTAATCCGTATTTGCA (site CGGAGGACTTG)”, the “recombinant UMI read abundance (log10)” value was 0.505. With “AGGAAGACATGGACCGGTTTTCCCGGTAATCCGTATTTGCA (site CGGTAGACTTG)” the “recombinant UMI read abundance (log10)” value was 1.27. With “AGGAAGACATGGACCGGTTTTCCCGGTAATCCGTATTTGCA (site CGTAAGACTTG)” the “recombinant UMI read abundance (log10)” value was 0.977. In the case of “AGGAAGACATGGACCGGTTTTCCCGGTAATCCGTATTTGCA (site GGCAAGACTTG)”, the “recombinant UMI read abundance (log10)” value is reported as 2.22. With “AGGAAGACATGGACCGGTTTTCCCGGTAATCCGTATTTGCA (site GGGAAGACTAG)” the “recombinant UMI read abundance (log10)” value was 0. In the case of “AGGAAGACATGGACCGGTTTTCCCGGTAATCCGTATTTGCA (site GGGAAGACTTC)”, the “recombinant UMI read abundance (log10)” value is reported as 0. In the case of “AGGAAGACATGGACCGGTTTTCCCGGTAATCCGTATTTGCA (site GGGAAGACTTG)”, the “recombinant UMI read abundance (log10)” value is reported as 0.614. With “AGGAAGACATGGACCGGTTTTCCCGGTAATCCGTATTTGCA (site GGGAAGGCTTG)” the “recombinant UMI read abundance (log10)” value was 0. In the case of “AGGAAGACATGGACCGGTTTTCCCGGTAATCCGTATTTGCA (site GGGAATACTTG)”, the “recombinant UMI read abundance (log10)” value is reported as 0. In the case of “AGGAAGACATGGACCGGTTTTCCCGGTAATCCGTATTTGCA (site GGGACGACTTG)”, the “recombinant UMI read abundance (log10)” value is reported as 0.00563. With “AGGAAGACATGGACCGGTTTTCCCGGTAATCCGTATTTGCA (site GGGCAGACTTG)” the “recombinant UMI read abundance (log10)” value was 0.837. For “AGGAAGACATGGACCGGTTTTCCCGGTAATCCGTATTTGCA (site GTGAAGACTTG)”, the “recombinant UMI read abundance (log10)” value was 0. With “AGGAAGACATGGACCGGTTTTCCCGGTAATCCGTATTTGCA (site TCGAAGACTTG)” the “recombinant UMI read abundance (log10)” value was 1.81. With “AGGAAGACATGGACCGGTTTTCCCGGTAATCCGTATTTGCA (site TGAAAGACTTG)” the “recombinant UMI read abundance (log10)” value was 1.06. For “AGGAAGACATGGACCGGTTTTCCCGGTAATCCGTATTTGCA (site TGGAAAACTTG)”, the “recombinant UMI read abundance (log10)” value was 0.756. With “AGGAAGACATGGACCGGTTTTCCCGGTAATCCGTATTTGCA (site TGGAAGACTCG)” the “recombinant UMI read abundance (log10)” value was 0.00521. For “AGGAAGACATGGACCGGTTTTCCCGGTAATCCGTATTTGCA (site TGGAAGACTTA)”, the “recombinant UMI read abundance (log10)” value was 0.696. For “AGGAAGACATGGACCGGTTTTCCCGGTAATCCGTATTTGCA (site TGGAAGACTTG)”, the “recombinant UMI read abundance (log10)” value was 1.16. For “AGGAAGACATGGACCGGTTTTCCCGGTAATCCGTATTTGCA (site TGGAAGTCTTG)”, the “recombinant UMI read abundance (log10)” value was 0. For “AGGAAGACATGGACCGGTTTTCCCGGTAATCCGTATTTGCA (site TGGATGACTTG)”, the “recombinant UMI read abundance (log10)” value was 0.00459. With “AGGAAGACATGGACCGGTTTTCCCGGTAATCCGTATTTGCA (site TGGGAGACTTG)” the “recombinant UMI read abundance (log10)” value was 0. With “AGGAAGACATGGACCGGTTTTCCCGGTAATCCGTATTTGTA (site AGGAAGACTTA)” the “recombinant UMI read abundance (log10)” value was 2.74. With “AGGAAGACATGGACCGGTTTTCCCGGTAATCCGTATTTGTA (site AGGAAGACTTC)” the “recombinant UMI read abundance (log10)” value was 0.521. With “AGGAAGACATGGACCGGTTTTCCCGGTAATCCGTATTTGTA (site AGGAAGACTTG)” the “recombinant UMI read abundance (log10)” value was 2.11. For “AGGAAGACATGGACCGGTTTTCCCGGTAATCCGTATTTGTA (site AGGAAGACTTT)”, the “recombinant UMI read abundance (log10)” value was 1.8. In the case of “AGGAAGGCATGGACCGGTTTTCCCGGTAATCCGTATTTGCA (site AGGAAGACTTG)”, the “recombinant UMI read abundance (log10)” value is reported as 1.98. In the case of “AGGAAGGCATGGACCGGTTTTCCCGGTAATCCGTATTTGCA (site AGGAAGCCTTG)”, the “recombinant UMI read abundance (log10)” value is reported as 0. For “AGGAAGGCATGGACCGGTTTTCCCGGTAATCCGTATTTGCA (site AGGAAGGCTTG)”, the “recombinant UMI read abundance (log10)” value was 2.41. For “AGGAAGGCATGGACCGGTTTTCCCGGTAATCCGTATTTGCA (site AGGAAGTCTTG)”, the “recombinant UMI read abundance (log10)” value was 1.82. For “AGGAATGCATGGACCGGTTTTCCCGGTAATCCGTATTTGCA (site AGGAAGACTTG)”, the “recombinant UMI read abundance (log10)” value was 0. With “AGGAATGCATGGACCGGTTTTCCCGGTAATCCGTATTTGCA (site AGGAATGCTTG)” the “recombinant UMI read abundance (log10)” value was 1.74. In the case of “AGGACGGCATGGACCGGTTTTCCCGGTAATCCGTATTTGCA (site AGGAAGACTTG)”, the “recombinant UMI read abundance (log10)” value is reported as 0. For “AGGACGGCATGGACCGGTTTTCCCGGTAATCCGTATTTGCA (site AGGACGGCTTG)”, the “recombinant UMI read abundance (log10)” value was 2.23. For “AGGACTACATGGACCGGTTTTCCCGGTAATCCGTATTTGAG (site AGGACTACTAT)”, the “recombinant UMI read abundance (log10)” value was 0.00837.
